Measurements reported in publication PMC9560627, “Targeting Echinococcus multilocularis PIM kinase for improving anti-parasitic chemotherapy” (PLoS Neglected Tropical Diseases, 2022).
Read-outs that look alike come from different tables or passages of the source.

Columns and labels:
FLT3 = conditions: cited from earlier work
haspin = conditions: cited from earlier work
human Pim-1 = conditions: cited from earlier work
HepG2 cells = assay: Mammalian cell toxicity, Cell Titer Glo 2.0 viability; format: cell-based, human; conditions: for IC50: read-out: IC50 against HepG2 cells
Description: (§1) The toxicity of inhibitors against mammalian cells was evaluated by treatment of the commonly used cell lines HEK293T [42] and HepG2 [43], which were cultivated and passaged as described in [43, 44]. […] 24 h after seeding, 50 μl of DMEM+GlutaMAX-I including FBS and inhibitors were added. Final concentrations of inhibitors were adjusted to 0–30 μM as indicated, DMSO alone was used as a control. Plates were incubated for 3 d under aerobic conditions and cell viability was measured using the Cell Titer Glo 2.0 system (Promega) according to the manufacturer’s instructions. Luminescence was measured by a Spectramax iD3 Multi-mode Microplate reader (Molecular Devices). Three independent experiments with three technical replicates were carried out for both cell lines. Luminescence units were normalized to the DMSO control of each independent experiment and expressed as percentage of luminescence unit. One-Way-ANOVA test followed by Tukey’s multiple comparisons test was used in GraphPad Prism version 9.3.1 (Graphpad software) for statistical analysis. Based on the cell viability data, dose-response curves were drawn and IC50 (best fit value) were calculated using GraphPad Prism version 9.3.1 (Graphpad software).

HEK293T cells = assay: as above; format: cell-based, human; conditions: for IC50: read-out: IC50 against HEK293T cells
Description: as §1

human Pim-3 = conditions: cited from earlier work
E. multilocularis PC [1] = assay: Vesicle formation assay (MV formation from PC); format: cell-based, Echinococcus multilocularis
Description: In vesicle formation assays, PC were isolated as described above and 100 U of isolated PC (~1.5×10^4 cells/well) were seeded in 96 well plates with 200 μl of conditioned medium (50% A6 medium + 50% B4 medium) for 21 d under nitrogen atmosphere. The number of newly formed vesicles was counted using an optical microscope (Nikon eclipse Ts2-FL) essentially as previously described. Kruskal-Wallis test followed by Dunn’s multiple comparisons test was used in GraphPad Prism version 9.3.1(Graphpad software) to analyze the difference of vesicle numbers in control and treatment groups. In this analysis, all concentrations were compared with the negative control DMSO. Experiments with SGI-1776 and CX-6258 were performed in three biological and technical replicates. Experiments with SGI-1776 and Z196138710 were performed in three technical replicates.

human Pim-2 = conditions: cited from earlier work
E. multilocularis MV = assay: Mature metacestode vesicle (MV) assay, structural integrity by microscopy; format: cell-based, Echinococcus multilocularis; conditions: for structural vesicle damage of MV (screen of 20 in silico compounds): 3 and 10 μM
Description: In mature MV assays, 10 individual MV each were cultured in 2 ml of conditioned medium (100% A6 medium) in the presence of inhibitors in 12 well plates under axenic conditions for 28 d as described in [39]. […] Structural integrity of MV was assessed using an optical microscope (Nikon eclipse Ts2-FL). Experimental set-up and execution of inhibitor studies and structural integrity assessment was performed by independent experimenters. Criteria for intact or damaged vesicles were essentially as previously described. All experiments were performed using 3 biological replicates. Percentages of structurally intact vesicles were statistically analyzed with one-way ANOVA with Dunnet’s multiple comparison tests in Graphpad prism 9.3.1(Graphpad software).

E. multilocularis PC [2] = assay: Cell viability assay (Cell Titer Glo 2.0) on E. multilocularis primary cell cultures (PC), initial kinase inhibitor screen; format: cell-based, Echinococcus multilocularis; conditions: for inhibition at 10 µM: Echinococcus multilocularis, read-out: growth inhibition of Echinococcus PC
solid tumour xenografts = test system: solid tumour xenografts; set-up: method as in PMID 22052829, PMID 25589932; conditions: mice, plasma concentrations around 3 μM free compound; cited from earlier work
[3] = cited from earlier work
[4] = test system: human Ether-á-go-go-related (hERG) cardiac ion channel; conditions: cited from earlier work
[5] = test system: a broad variety of other cell types, including chronic lymphocytic leukemia cells; set-up: method as in PMID 22052829, PMID 19734450; conditions: read-out: in vitro IC50 against a broad variety of other cell types; cited from earlier work
[6] = set-up: method as in PMID 30370255; conditions: non-Hodgkin lymphoma and prostate cancer; cited from earlier work
E. multilocularis = test system: E. multilocularis; set-up: method as in PMID 26389799; conditions: cited from earlier work
Echinococcus = conditions: ref PMID:9593125; cited from earlier work
[7] = response to reviewers, ref literature, not numbered at the place

In the case of `CN1CCCN(C(=O)c2cccc(-c3ccc(/C=C4/C(=O)Nc5ccc(Cl)cc54)o3)c2)CC1` [CX-6258], the IC50 (FLT3; read-out: IC50 FLT3) is listed as 134 nM, the “activity against haspin kinase” value (haspin; melanoma cell lines) is listed as “much higher IC50 values than against Pim-1 and Pim-3” and the IC50 (human Pim-1; read-out: IC50 Pim-1) is listed as […]. For the same compound, the “effect on HepG2 cells” value (HepG2 cells; 30 and 10 μM, 3 d) was “fully eliminated”, the IC50 (HepG2 cells; 3 d, cell viability) was about 1000 nM and the “effect on HEK293T cells” value (HEK293T cells; 30 and 10 μM, 3 d) was “fully eliminated”. The IC50 (HEK293T cells; 3 d, cell viability) was about 1000 nM, the IC50 (human Pim-3; read-out: IC50 Pim-3) was 16 nM and the “MV formation from stem cells (PC)” value (E. multilocularis PC [1]; 3 μM, 21 d) was “drastically affected MV formation”. For the same compound, the “MV formation from stem cells (PC)” value (E. multilocularis PC [1]; concentrations higher than 3 μM, 21 d) was “completely inhibited MV development”, the IC50 (human Pim-2; read-out: IC50 Pim-2) was 25 nM and the “effect on structural integrity of mature MV” value (from here on “effect on structural integrity”) (E. multilocularis MV; 3 μM, 28 d) was “did not lead to statistically significant effects”. The “effect on structural integrity” value (E. multilocularis MV; 10 μM, 28 d) was “drastic loss of structural integrity of all”.
In the case of `Cc1nc(Nc2ncc(C(=O)Nc3c(C)cccc3Cl)s2)cc(N2CCN(CCO)CC2)n1` [Dasatinib], the “effect on parasite PC proliferation” value (E. multilocularis PC [2]; 10 μM, 3 d and 7 d) is reported as “stimulated parasite cell proliferation”.
For `CN1CCC(CNc2ccc3ncc(-c4cccc(OC(F)(F)F)c4)n3n2)CC1` [SGI-1776], the “efficacy against solid tumour xenografts” value (solid tumour xenografts) is given as “effective against solid tumour xenografts in mice”, the “compound bound to plasma proteins” value ([3]; in vivo application in mice) is given as “around 95%” and the “well tolerated plasma concentration of free compound (not bound to plasma proteins)” value ([3]; mice) is given as “around 3 μM”. For the same compound, the “concentration of free (unbound) compound achieved in the plasma of mammals” value [3, 7] was […], the “drug bound to human plasma protein” value [3, 7] was “about 95%” and the IC50 (FLT3; read-out: IC50 against FLT3) was 44 nM. The IC50 (haspin; read-out: IC50 against haspin) was 34 nM, the “cause of toxicity in clinical trials: hERG” value [4] was “off-target effects” and the IC50 [5] was about 3000 nM. The IC50 (human Pim-1; read-out: IC50 against human Pim-1) was […], the “effect on HepG2 cells” value (HepG2 cells; 30 and 10 μM, 3 d) was “fully eliminated” and the IC50 (HepG2 cells; Homo sapiens, HepG2, 72 h) was about 1000 nM. The “effect on HEK293T cells” value (HEK293T cells; 30 and 10 μM, 3 d) was “fully eliminated”, the IC50 (HEK293T cells; Homo sapiens, HEK-293T, 72 h) was about 1000 nM and the “toxicity in clinical phase I trials” value [6] was “toxicity in cardiac electric cycle prolongation”. For the same compound, the inhibition at 10 µM (E. multilocularis PC [2]; 72 h) was about 60%, the inhibition at 10 µM (E. multilocularis PC [2]; 168 h) was about 80% and the IC50 (human Pim-3; read-out: IC50 against human Pim-3) was 69 nM. For the same compound, the “MV formation from stem cells (PC)” value (E. multilocularis PC [1]; 3 μM, 21 d) was “did not lead to statistically significant effects”, the “MV formation from stem cells (PC)” value (E. multilocularis PC [1]; 10 μM, 21 d) was “almost completely” and the “MV formation from stem cells (PC)” value (E. multilocularis PC [1]; 30 μM, 21 d) was “completely prevented”. The IC50 (human Pim-2; read-out: IC50 against human Pim-2) was 363 nM, the “effect on structural integrity” value (E. multilocularis MV; 3 μM, 28 d) was “did not lead to statistically significant effects” and the “effect on structural integrity” value (E. multilocularis MV; 10 μM, 28 d) was “almost all”.
In the case of `Cc1noc(C)c1COc1cccc(C(=O)N2CCC(C(N)=O)CC2)c1` [Z30898879], the “structural vesicle damage of MV (screen of 20 in silico compounds)” value (shortened to “structural vesicle damage of MV”) (E. multilocularis MV; 28 d) is reported as “highly effective in inducing structural vesicle damage”.
In the case of `CN(C)C(=O)CN1CCN(Cc2nc3scc(-c4ccccc4Cl)c3c(=O)[nH]2)CC1` [Z65225039], the “structural vesicle damage of MV” value (E. multilocularis MV; 28 d) is reported as “highly effective in inducing structural vesicle damage”.
With `COc1cc(CNc2ncnc3ccsc23)ccc1OC(F)F` [Z196138710, N-(4-(difluoromethoxy)-3-methoxybenzyl)-thieno-[3,2-d]-pyrimidin-4-amine] the “inhibition of HepG2 cells” value (HepG2 cells; 30 and 10 μM, 3 d) was 40–60%, the IC50 (HepG2 cells; Homo sapiens, HepG2, 72 h, 3 d, cell viability) was 16000 nM and the “inhibition of HEK293T cells” value (HEK293T cells; 30 and 10 μM, 3 d) was 40–60%. For the same compound, the IC50 (HEK293T cells; Homo sapiens, HEK-293T, 72 h, 3 d, cell viability) was 11000 nM, the “concentration effective against the parasite, stem cell cultures” value (E. multilocularis PC [1]) was 3 µM and the “MV formation from stem cells (PC)” value (E. multilocularis PC [1]; 10 μM, 21 d) was “completely prevented MV formation”. For the same compound, the “MV development from primary cells, comparison with SGI-1776” value (E. multilocularis PC [1]; different concentrations, 21 d) was “effects similar to those of SGI-1776”, the “concentration effective against the parasite, mature MV” value (E. multilocularis MV) was 10 µM and the “structural disintegration of MV” value (E. multilocularis MV; 10 μM, 28 d) was 100%. For the same compound, the “structural vesicle damage of MV” value (E. multilocularis MV; 28 d) was “highly effective in inducing structural vesicle damage”.
With `CCC1CN(Cc2nc3cc(OC)c(OC)cc3c(=O)[nH]2)CCO1` (stereo not drawn) [Z354576500] the “structural vesicle damage of MV” value (E. multilocularis MV; 28 d) was “highly effective in inducing structural vesicle damage”.
For `CCCSc1ccc2nc(NC(=O)OC)[nH]c2c1` [albendazole], the “efficacy against the parasite in AE patients” value (E. multilocularis) is listed as “effective against the parasite in only one third of cases”.
For `COC(=O)Nc1nc2ccc(C(=O)c3ccccc3)cc2[nH]1` [mebendazole], the “in vitro active concentrations” value (Echinococcus) is given as 1 to 10 µM and the “efficacy against the parasite in AE patients” value (E. multilocularis) is given as “effective against the parasite in only one third of cases”.
